Data published in EP1207395A1, “METHOD FOR MEASURING KINASE ACTIVITY OF CYCLIN/CDK COMPLEX” (Medical & Biological Laboratories Co., Ltd., priority 1999, dated 2001).

Assays:
cyclin D1/CDK4 complex = target: T1, cyclin D1/CDK4 complex (Homo sapiens, UniProt P11802); assay: ELISA method, inhibitory effect on cyclin D1/CDK4 complex; format: biochemical; details: for OD levels (inhibitory effect): RB301 substrate, 100 µM ATP, Figs. 5 and 9
T1 construct: 6xHis (N); made in house; host or cells: Sf9 insect cells (baculovirus)
Description: (§1) Clone 1C12 (specific to Thr356), clone 4E4 (specific to Ser612), and clone 2C4 (specific to Ser780) were used as the anti-phosphorylated RB monoclonal antibodies. Each anti-phosphorylated RB monoclonal antibody was diluted to a concentration of 10 µg/ml in PBS, and 100 µl of the diluted solution was added to each well of the plate followed by incubating at 4 °C for 15 hours. After removing the antibody solution, the reaction product in each well was blocked at 4°C for 24 hours in a PBS solution (5% sucrose, 0.1% NaN3) containing 2.5% of BSA. The plate was subjected to measurements after airdrying.
The RB amino acid sequence 301aa-928aa was expressed as a GST fusion protein in Escherichia coli, and the protein (RB301) purified using glutathione Sepharose and phosho-Cellulose columns (P11) was used as the substrate. Cyclin D1/CDK4, cyclin A/CDK2, cyclin E/CDK2, and cyclin B/CDK1, respectively, were expressed in the sf9 cells using baculovirus, and were purified using a cobalt column and phospho-Cellulose column in order to use them as the cyclin/CDK complexes.
(§2) RB301 (10µg/ml), 100µM ATP, and respective Cyclin/CDK were added to the phosphate buffer (50 mM HEPES, 0.05% Triton X, 15 mM MgCl2, 2 mM EGTA, 200 µg/ml BSA) (final reaction volume of 180 µl), and was reacted for 30 minutes at 30°C. The reaction was stopped by adding 180 µl of PBS (10% skim milk, 350 mM NaCl, 50 mM EDTA) to each assay system.
After completing the phosphorylation reaction, 100 µl of each of the reaction solutions was added to the antibody sensitization plate, which was incubated at room temperature for 1 hour (primary reaction). After washing with PBS [washing solution: PBS (500 mM NaCl, 0.1% Tween 20)] five times using a wash-bottle, 100 µl of anti-GST polyclonal antibody solution (0.5 µg/ml) was added to each well of the microplate, followed by incubation at room temperature for 1 hour (secondary reaction). After washing with PBS [washing solution: PBS (500 mM NaCl, 0.1% Tween 20)] five times using a wash-bottle, 100 µl of HRP labeled anti-rabbit IgG antibody solution (20,000-fold dilution) was added to each well of the microplate, followed by incubation at room temperature for 30 minutes (tertiary reaction). Then, the reaction solution was colored (coloring reaction) at room temperature for 30 minutes using TMB (tetramethylbentidine).

CDK4 [1] = target: T2, CDK4 (Homo sapiens, UniProt P11802); details: reported in the literature (Meijer et al. 1997); cited from earlier work
cyclin B/CDK1 complex = target: T3, cyclin B/CDK1 complex (Homo sapiens, UniProt P06493); format: biochemical; details: ELISA method; RB301 substrate, 100 µM ATP; Figs. 2 and 6
T3 construct: 6xHis (N); made in house; host or cells: Sf9 insect cells (baculovirus)
Description: as §1
(§3) Cyclin D1/CDK4, cyclin A/CDK2, cyclin E/CDK2, and cyclin B/CDK1, respectively, were expressed in the sf9 cells using baculovirus, and were purified using a cobalt column and phospho-Cellulose column in order to use them as the cyclin/CDK complexes.
as §2
(§4) After completing the phosphorylation reaction, 100 µl of each of the reaction solutions was added to the antibody sensitization plate, which was incubated at room temperature for 1 hour (primary reaction). […]

cyclin A/CDK2 complex = target: T4, cyclin A/CDK2 complex (Homo sapiens, UniProt P24941); assay: ELISA method, inhibitory effect on cyclin A/CDK2 complex; format: biochemical; details: RB301 substrate, 100 µM ATP, Figs. 3 and 7
T4 construct: 6xHis (N); made in house; host or cells: Sf9 insect cells (baculovirus)
Description: as §1, §3, §2, §4

cyclin E/CDK2 complex = target: T5, cyclin E/CDK2 complex (Homo sapiens, UniProt P24941); assay: ELISA method, inhibitory effect on cyclin E/CDK2 complex; format: biochemical; details: RB301 substrate, 100 µM ATP, Figs. 4 and 8
T5 construct: 6xHis (N); made in house; host or cells: Sf9 insect cells (baculovirus)
Description: as §1, §3, §2, §4

PKC = details: against PKC; nominal value of commercially available reagent; cited from earlier work
MEK = details: inhibitor to MEK; nominal value of commercially available reagent; cited from earlier work
CDK4 [2] = target: T2, CDK4; details: against CDK4; nominal value; cited from earlier work
cdk2 = cdk2 (Homo sapiens, UniProt P24941); details: against CDK2; nominal value; cited from earlier work

T1 sequence (P11802 whole entry): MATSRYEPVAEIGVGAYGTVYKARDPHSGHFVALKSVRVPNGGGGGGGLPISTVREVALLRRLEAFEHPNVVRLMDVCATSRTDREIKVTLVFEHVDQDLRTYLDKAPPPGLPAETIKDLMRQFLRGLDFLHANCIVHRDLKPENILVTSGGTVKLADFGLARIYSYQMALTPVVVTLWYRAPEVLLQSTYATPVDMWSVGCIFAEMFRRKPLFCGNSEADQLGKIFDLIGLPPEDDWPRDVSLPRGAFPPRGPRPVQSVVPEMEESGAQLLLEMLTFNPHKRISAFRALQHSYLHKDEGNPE
T1 sequence (P24385 whole entry partner): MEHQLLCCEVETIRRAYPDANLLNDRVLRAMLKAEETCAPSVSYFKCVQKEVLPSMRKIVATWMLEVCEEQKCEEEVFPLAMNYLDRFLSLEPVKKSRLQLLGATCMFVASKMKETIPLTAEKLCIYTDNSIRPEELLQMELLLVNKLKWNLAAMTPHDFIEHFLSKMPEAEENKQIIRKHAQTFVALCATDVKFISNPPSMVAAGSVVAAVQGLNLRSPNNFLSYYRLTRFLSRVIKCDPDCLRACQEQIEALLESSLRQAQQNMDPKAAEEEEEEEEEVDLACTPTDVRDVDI
T2 sequence (P11802 whole entry, species assumed): as the sequence (P11802 whole entry) above
T2 sequence (P24385 whole entry partner, species assumed): as the sequence (P24385 whole entry partner) above
T3 sequence (P06493 whole entry): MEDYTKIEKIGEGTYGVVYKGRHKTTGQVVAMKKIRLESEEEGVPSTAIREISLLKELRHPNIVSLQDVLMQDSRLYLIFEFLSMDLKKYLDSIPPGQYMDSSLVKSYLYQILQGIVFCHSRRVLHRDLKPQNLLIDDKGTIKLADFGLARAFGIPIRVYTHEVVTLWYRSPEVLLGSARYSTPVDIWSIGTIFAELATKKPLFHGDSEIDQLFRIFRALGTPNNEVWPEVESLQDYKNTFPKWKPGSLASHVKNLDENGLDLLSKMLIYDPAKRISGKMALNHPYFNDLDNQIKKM
T3 sequence (P14635 whole entry partner): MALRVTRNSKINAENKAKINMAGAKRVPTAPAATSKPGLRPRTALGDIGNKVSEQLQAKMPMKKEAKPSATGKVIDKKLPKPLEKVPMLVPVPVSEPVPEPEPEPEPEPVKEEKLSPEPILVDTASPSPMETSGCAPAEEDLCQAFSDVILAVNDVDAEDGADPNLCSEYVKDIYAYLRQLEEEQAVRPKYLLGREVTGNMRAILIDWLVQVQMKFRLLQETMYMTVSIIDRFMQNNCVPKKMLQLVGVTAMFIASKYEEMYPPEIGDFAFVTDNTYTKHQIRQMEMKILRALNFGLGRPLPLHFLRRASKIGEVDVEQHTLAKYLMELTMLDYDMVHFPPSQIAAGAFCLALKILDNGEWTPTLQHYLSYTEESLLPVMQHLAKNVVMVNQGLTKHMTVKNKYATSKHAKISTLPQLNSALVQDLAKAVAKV

Structure (SMILES)	OD levels (inhibitory effect) (cyclin D1/CDK4 complex)	inhibitory effect on cyclin D1/CDK4 compared with the other three cyclin/CDK complexes (cyclin D1/CDK4 complex)	inhibitory effect on cdk4 (CDK4 [1])	OD levels (inhibitory effect) (cyclin B/CDK1 complex)	OD levels (inhibitory effect) (cyclin A/CDK2 complex)	OD levels (inhibitory effect) (cyclin E/CDK2 complex)	Ki (PKC) [nM]	IC50 (MEK) [nM]	IC50 (CDK4 [2]) [nM]	IC50 (cdk2) [nM]
Cn1cnc2nc(NCCO)nc(NCc3ccccc3)c21 [Olomoucine-isomer]	almost no decrease in the OD value	–	–	–	–	–	–	–	–	–
CC[C@H](CO)Nc1nc(NCc2ccccc2)c2ncn(C(C)C)c2n1 [Roscovitine]	decreased in a inhibitor concentration-dependent manner	weaker than those on the other three cyclin/CDK complexes	remarkably weak inhibitory effect	–	–	–	–	–	–	–
COC(=O)[C@@]1(O)C[C@H]2O[C@]1(C)n1c3ccccc3c3c4c(c5c6ccccc6n2c5c31)C(=O)NC4 [K252a]	decreased in a inhibitor concentration-dependent manner	–	–	decreased in a inhibitor concentration-dependent manner	decreased in a inhibitor concentration-dependent manner	decreased in a inhibitor concentration-dependent manner	25	–	–	–
N#CC(=C(/N)Sc1ccccc1N)/C(C#N)=C(\N)Sc1ccccc1N [U0126]	almost no decrease in the OD value	–	–	–	almost no decrease in the OD value	almost no decrease in the OD value	–	55	> 10000	> 10000
